Assay results as given in patent publication US10118947B2, “Modulation of structured polypeptide specificity” (BICYCLE THERAPEUTICS LIMITED, priority 2013, dated 2018).
Read-outs that look alike come from different tables or passages of the source. Numbered stars: 1 amine (or outer) side, 2 acyl side, 3 side chain; on linkers, the order of the positions; unused ones are H or OH. Bridge positions count the residues as written; N and C are the ends. Square brackets hold non-standard residues; d marks the D form. Peptide text beside a SMILES is read from it. Phe(4-guanidino) = N=C(N)Nc1ccc(C[C@H](N)C(=O)O)cc1; TBMB = c1c(C[*:1])cc(C[*:3])cc1C[*:2]; NMeR = CN[C@@H](CCCNC(=N)N)C(=O)O; hArg = N=C(N)NCCCC[C@H](N)C(=O)O; Aze = O=C(O)[C@@H]1CCN1

What was measured:
[1] = Plasma stability profiling Method #1 (MALDI-TOF, 35% plasma), rat plasma; format: in vitro ADME; conditions: for Observable in rat plasma, for days: Table 15, comparative stabilities estimated according to method #1; for observability window / rat plasma stability profile: method #1
Method in brief: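 Qualitative test: 200 µM peptide incubated at 37 °C in 35% rat or human citrated plasma supplemented with PBS, sampled at 0, 3, 24 h then daily up to 10 days. Parent mass tracked by MALDI-TOF; value is time until parent peptide no longer detectable.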

rat plasma Kallikrein [2] = molecular target: T1, rat plasma Kallikrein (Rattus norvegicus, UniProt P14272)
T1 construct: polyhistidine tag (N, cleaved yes); proTEV cleavage site (pro-peptide linker) (N, cleaved yes); made in house; host or cells: HEK-293 (suspension-adapted)
T1 sequence (P14272 391-638 limits assumed): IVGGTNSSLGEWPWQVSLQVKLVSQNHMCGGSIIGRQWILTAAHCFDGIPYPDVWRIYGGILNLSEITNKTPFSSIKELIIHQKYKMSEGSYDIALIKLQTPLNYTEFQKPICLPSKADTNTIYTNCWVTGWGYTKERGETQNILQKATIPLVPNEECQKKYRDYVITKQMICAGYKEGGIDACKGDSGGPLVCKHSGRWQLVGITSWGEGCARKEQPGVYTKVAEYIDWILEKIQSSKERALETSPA

[3] = Table 1; Method #1; cited from earlier work
human plasma Kallikrein = molecular target: T2, human plasma Kallikrein (Homo sapiens, UniProt P03952); assay: Functional enzyme inhibition assay with fluorogenic substrate Z-PheArg-AMC, human plasma Kallikrein; format: biochemical
T2 construct: purchased Stratech, UK
T2 sequence (P03952 20-638): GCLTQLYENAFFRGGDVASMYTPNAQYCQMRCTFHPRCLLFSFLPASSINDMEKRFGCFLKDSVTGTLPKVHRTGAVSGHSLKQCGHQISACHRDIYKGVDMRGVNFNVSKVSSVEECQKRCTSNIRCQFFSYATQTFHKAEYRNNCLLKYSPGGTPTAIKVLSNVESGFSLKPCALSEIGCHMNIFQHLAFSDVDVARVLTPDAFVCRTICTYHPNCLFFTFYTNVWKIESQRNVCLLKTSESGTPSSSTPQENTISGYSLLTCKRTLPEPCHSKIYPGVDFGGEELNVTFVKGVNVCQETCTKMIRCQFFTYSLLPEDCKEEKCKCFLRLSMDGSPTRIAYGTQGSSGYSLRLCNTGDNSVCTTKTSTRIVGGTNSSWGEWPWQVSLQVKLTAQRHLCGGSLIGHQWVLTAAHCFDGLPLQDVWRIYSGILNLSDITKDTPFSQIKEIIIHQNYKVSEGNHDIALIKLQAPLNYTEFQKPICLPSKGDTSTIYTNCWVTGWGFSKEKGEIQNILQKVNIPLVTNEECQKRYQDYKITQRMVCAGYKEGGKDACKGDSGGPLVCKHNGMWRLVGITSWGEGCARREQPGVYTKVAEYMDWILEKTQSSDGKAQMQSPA
Method in brief: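 Rates of AMC release (excitation 360 nm, emission 460 nm) from 100 μM final Z-PheArg-AMC, 4% DMSO, were taken over the linear phase, typically 5 to 45 minutes. IC50 from four-parameter non-linear regression; Ki also derived.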

[4] = Intravenous pharmacokinetics in Sprague Dawley rats; format: in vivo; conditions: rat
Description: Peptides were applied as intravenous boli in PBS-buffered solution at 1.02 mg/mL (containing 2.9% DMSO) at 5.2 mg/kg to Sprague Dawley rats, and serial blood samples were taken from each animal via temporary indwelling tall vein cannulae at 5, 10, 20, 30, 60, 120, and 240 minutes post dose, and transferred to EDTA tubes for plasma generation. Data was acquired for peptide “all D Ac-06-34-18” from 3 rats, for “Ac-(06-34-18) Phe2 Aze3 Tyr4 HArg5 Ala(ψCH2NH)6” from two rats, and for “Ac-(06-34-18) Phe2 Aze3 Tyr4 HArg5 D-Asp9” from two rats.
Plasma samples were then treated with 3 volumes of a 1:1 mixture of acetonitrile and methanol, precipitated proteins were removed by centrifugation, and the supernatant was analysed by UPLC-MS/MS.
Quantification for peptide content in the samples was by reference to a calibration line prepared in control rat plasma. Pharmacokinetic parameters were determined by non-compartmental analysis using the software package PK Solutions 2.0 from Summit Research Services.

[5] = Quantitative plasma stability Method #3 (LC-MS, 95% plasma), rat plasma; format: in vitro ADME; conditions: method #3; for half-life at 5 uM: rat, plasma
Description: To obtain plasma stability quantitatively, peptide stock solutions (1 mM in DMSO) were shipped to Biofocus, UK, who performed the analysis. Peptides were diluted to 100 uM with water, and diluted 1:20 in plasma (5 uM final concentration, with the plasma at 95%), sampled as appropriate, precipitated as above, and quantified using a Waters Xevo TQ-MS.

[6] = Table 1; Method #3; cited from earlier work
rat plasma Kallikrein [7] = molecular target: T1, rat plasma Kallikrein; assay: Functional enzyme inhibition assay with fluorogenic substrate Z-PheArg-AMC, rat plasma Kallikrein; format: biochemical; conditions: Table 26a, loop2 stability enhanced candidates
Description: Functional enzyme assays were conducted in 10 mM Tris HCl, 150 mM NaCl, 10 mM MgCl2, 1 mM CaCl2) and 1 mg/mL BSA (all Sigma UK) pH7.4 at 25° C. in solid black 96 well plates. Briefly 26.5 pM human plasma Kallikrein (purchased from Stratech, UK) or 500 pM rat plasma Kallikrein (expressed and purified in house) were incubated in the absence or presence of increasing concentrations of test peptide for 15 minutes before addition of the fluorogenic substrate Z-PheArg-AMC (Enzo Lifesciences UK) to a final assay concentration of 100 μM in 4% DMSO. Release of AMC was measured using a Pherastar FS (BMG Labtech), excitation 360 nm, emission 460 nm. The rate of the linear phase of the reaction, typically 5 to 45 minutes, was calculated in MARS data analysis software (BMG labtech). The rate was then used to calculate the IC50 and Ki in Prism (GraphPad). A four parameter inhibition non-linear regression equation was used to calculate the IC50.
Peptides were dissolved as the TFA-salts in their powder form, and stock solutions were usually prepared in water. All solutions were centrifuged and filtered ([…] syringe filters) prior absorption measurement at 280 nm. Extinction coefficients were calculated based on the Trp/Tyr content of the peptide, and that of TMB (the TMB core, when contained in a peptide, has an ε of ˜300 M^−1cm^−1). For peptides containing non-natural amino acids with suspected chromophoric properties (i.e. NorHar, 4PhenylPro, 3Pal, 4Pal, Tic, 4GuanPhe, 4,4-BPAI, 3,3-DPA, 1NAI, 2NAI, 4BenzylPro, Ind) concentrations were determined by weighing the powder and dissolving the peptide in a defined quantity of water.

[8] = Plasma stability / fragment profiling Method #2 (MALDI-TOF, 95% plasma), human plasma; format: in vitro ADME; conditions: running text and figure legends
Method in brief: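 Peptide at 50 uM final in 95% human plasma without PBS; timed samples frozen at −80 °C, then extracted with 1:1 acetonitrile:methanol. Supernatant mixed with 30 mM ammonium bicarbonate and analysed by MALDI-TOF; qualitative fragment profiling of relative stability over time.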

[9] = Table 1; read-out: Ki (nM) (rat kallikrein); cited from earlier work
[10] = read-out: half-life in rat plasma (t1/2) (converted)

Question: Which “Observable in rat plasma, for days” value [1] does the source give for `CC(=O)N[C@H]1CSCc2cc3cc(c2)CSC[C@H](NC(=O)[C@H](CCCCNC(=N)N)NC(=O)[C@H](C)NC(=O)[C@@H]2CCN2C(=O)[C@H](Cc2c[nH]c4ccccc24)NC(=O)[C@H](CO)NC1=O)C(=O)N[C@@H](CC(C)C)C(=O)N[C@@H](Cc1c[nH]cn1)C(=O)N[C@@H](CCC(N)=O)C(=O)N[C@@H](CC(=O)O)C(=O)N[C@@H](CC(C)C)C(=O)N[C@H](C(N)=O)CSC3` [Ac-(06-34-18) Aze3 HomoArg5] (Ac-CSW[Aze]A[hArg]CLHQDLC-NH2; linker 1-7-13 via TBMB) here?
Answer: >10 days

Question: What about the Ki (rat plasma Kallikrein [2]; [9]) of the same molecule?
Answer: 14.8 nM

Question: What about the “Observable in rat plasma, for days” value [3] of the same molecule?
Answer: >10 days

Question: With `CC(=O)N[C@@H]1CSCc2cc3cc(c2)CSC[C@@H](NC(=O)[C@@H](CCCNC(=N)N)NC(=O)[C@@H](C)NC(=O)[C@H]2CCCN2C(=O)[C@@H](Cc2c[nH]c4ccccc24)NC(=O)[C@@H](CO)NC1=O)C(=O)N[C@H](CC(C)C)C(=O)N[C@H](Cc1c[nH]cn1)C(=O)N[C@H](CCC(N)=O)C(=O)N[C@H](CC(=O)O)C(=O)N[C@H](CC(C)C)C(=O)N[C@@H](C(N)=O)CSC3` [All D 06-34-18, Ac-cswparclhqdlc-NH2(TMB), reference compound] as the molecule, how does the “potency / binding to kallikrein (in words)” value (human plasma Kallikrein) read?
Answer: lacks any potency

Question: What about the half-life ([4]; Sprague Dawley, in vivo, intravenous bolus 5.2 mg/kg, read-out: elimination half-life) of the same molecule?
Answer: 0.9 h

Question: And the “Clearance based on AUC0-∞” value ([4]; intravenous)?
Answer: 0.27 L/h/kg

Question: And the “Volume of distribution based on AUC0-∞” value ([4]; intravenous)?
Answer: 0.3 L/kg

Question: What does the source list for `CC(=O)N[C@H]1CSCc2cc3cc(c2)CSC[C@H](NC(=O)[C@H](CCCNC(=N)N)NC(=O)[C@H](C)NC(=O)[C@@H]2CCCN2C(=O)[C@H](Cc2c[nH]c4ccccc24)NC(=O)[C@H](CO)NC1=O)C(=O)N[C@@H](CC(C)C)C(=O)N[C@@H](Cc1c[nH]cn1)C(=O)N[C@@H](CCC(N)=O)C(=O)N[C@@H](CC(=O)O)C(=O)N[C@@H](CC(C)C)C(=O)N[C@H](C(N)=O)CSC3` [Ac-(06-34-18) wildtype]?
Answer: observability window / rat plasma stability profile [1]: about 2 days; t1/2 (hrs) in rat plasma ([5]; Table 15): 2.3 h; half-life at 5 uM [5, 10]: 2.3 h; Ki (rat plasma Kallikrein [2]; read-out: Ki (nM) (rat kallikrein); Table 1; cited from earlier work): 1.8 nM; t1/2 (hrs) in rat plasma [6]: 2.3 h

Question: Which “reduction in potency/affinity compared to wildtype” value (human plasma Kallikrein) does the source give for `CC(=O)N[C@H]1CSCc2cc3cc(c2)CSC[C@H](NC(=O)[C@H](CCCNC(=N)N)N(C)C(=O)[C@H](C)NC(=O)[C@@H]2CCCN2C(=O)[C@H](Cc2c[nH]c4ccccc24)NC(=O)[C@H](CO)NC1=O)C(=O)N[C@@H](CC(C)C)C(=O)N[C@@H](Cc1c[nH]cn1)C(=O)N[C@@H](CCC(N)=O)C(=O)N[C@@H](CC(=O)O)C(=O)N[C@@H](CC(C)C)C(=O)N[C@H](C(N)=O)CSC3` [Ac-(06-34-18) NMeArg5] here?
Answer: 20 fold

Question: What about the “observability window / rat plasma stability profile” value [1] of the same molecule?
Answer: exceeds the assay time

Question: And the “t1/2 (hrs) in rat plasma” value ([5]; Table 15)?
Answer: >20 h

Question: What about the half-life at 5 uM [5, 10] of the same molecule?
Answer: > 20 h

Question: And the Ki (rat plasma Kallikrein [2]; [9])?
Answer: 120 nM

Question: And the “t1/2 (hrs) in rat plasma” value [6]?
Answer: >20 h

Question: For `CC(=O)N[C@H]1CSCc2cc3cc(c2)CSC[C@H](NC(=O)[C@H](Cc2ccc(NC(=N)N)cc2)NC(=O)[C@H](C)NC(=O)[C@@H]2CCN2C(=O)[C@H](Cc2c[nH]c4ccccc24)NC(=O)[C@H](CO)NC1=O)C(=O)N[C@@H](CC(C)C)C(=O)N[C@@H](Cc1c[nH]cn1)C(=O)N[C@@H](CCC(N)=O)C(=O)N[C@@H](CC(=O)O)C(=O)N[C@@H](CC(C)C)C(=O)N[C@H](C(N)=O)CSC3` [Ac-(06-34-18) Aze3 4GuanPhe5] (Ac-CSW[Aze]A[Phe(4-guanidino)]CLHQDLC-NH2; linker 1-7-13 via TBMB), which “Observable in rat plasma, for days” value [1] is on record?
Answer: >10 days

Question: What about the “Observable in rat plasma, for days” value [3] of the same molecule?
Answer: >10 days

Question: With `CC(=O)N[C@H]1CSCc2cc3cc(c2)CSC[C@H](NC(=O)[C@H](CCCNC(=N)N)N(C)C(=O)[C@H](C)NC(=O)[C@@H]2CCN2C(=O)[C@H](Cc2c[nH]c4ccccc24)NC(=O)[C@H](CO)NC1=O)C(=O)N[C@@H](CC(C)C)C(=O)N[C@@H](Cc1c[nH]cn1)C(=O)N[C@@H](CCC(N)=O)C(=O)N[C@@H](CC(=O)O)C(=O)N[C@@H](CC(C)C)C(=O)N[C@H](C(N)=O)CSC3` [Ac-(06-34-18) Aze3 NMeArg5] (Ac-CSW[Aze]A[NMeR]CLHQDLC-NH2; linker 1-7-13 via TBMB) as the molecule, how does the “Observable in rat plasma, for days” value [1] read?
Answer: >10 days

Question: What about the Ki (rat plasma Kallikrein [2]; [9]) of the same molecule?
Answer: 70.2 nM

Question: And the “Observable in rat plasma, for days” value [3]?
Answer: >10 days

Question: Which half-life at 5 uM ([5]; Table 15, read-out: t1/2 (hrs) in rat plasma (converted)) does the source give for `CC(=O)N[C@H]1CSCc2cc3cc(c2)CSC[C@H](NC(=O)[C@H](CCCCNC(=N)N)NC(=O)[C@H](C)NC(=O)[C@@H]2CCCN2C(=O)[C@H](Cc2c[nH]c4ccccc24)NC(=O)[C@H](CO)NC1=O)C(=O)N[C@@H](CC(C)C)C(=O)N[C@@H](Cc1c[nH]cn1)C(=O)N[C@@H](CCC(N)=O)C(=O)N[C@@H](CC(=O)O)C(=O)N[C@@H](CC(C)C)C(=O)N[C@H](C(N)=O)CSC3` [Ac-(06-34-18) HomoArg5] here?
Answer: 10.7 h

Question: And the Ki (rat plasma Kallikrein [2]; [9])?
Answer: 101 nM

Question: And the “t1/2 (hrs) in rat plasma” value [6]?
Answer: 10.7 h

Question: With `CC(=O)N[C@H]1CSCc2cc3cc(c2)CSC[C@H](NC(=O)[C@H](CCCNC(=N)N)NC(=O)[C@H](Cc2ccc(O)cc2)NC(=O)[C@@H]2CCCN2C(=O)[C@H](Cc2ccccc2)NC(=O)[C@H](CO)NC1=O)C(=O)N[C@@H](C)CN[C@@H](Cc1c[nH]cn1)C(=O)N[C@@H](CCC(N)=O)C(=O)N[C@@H](CC(=O)O)C(=O)N[C@@H](CC(C)C)C(=O)N[C@H](C(N)=O)CSC3` [Ac-(06-34-18) Phe2 Tyr4 Ala(ψCH2NH)6] as the molecule, how does the Kd (human plasma Kallikrein) read?
Answer: 0.0015 µM

Question: What about the “F (Kivar/KiWT)” value (human plasma Kallikrein; Table 25b, fold change of Ki of variant compared to WT) of the same molecule?
Answer: 4

Question: What about the Ki (human plasma Kallikrein; Table 25b, peptide backbone modifications in Loop2, human plasma kallikrein, read-out: Ki) of the same molecule?
Answer: 0.00147 µM

Question: What about the Ki (rat plasma Kallikrein [7]) of the same molecule?
Answer: 43.6 nM

Question: What about the “degradation / fragments in human plasma (in words)” value [8] of the same molecule?
Answer: significantly enhanced stability in loop2
